Values quoted from earlier work as cited in patent US20090092657A1, “Amino acid combinant omega oil aphrodisiac” (priority 2007, published 2009).

Legend:
[1] = for erection after injection: injected directly into the corpus cavernosum using a hypodermic needle; for duration of erection: intracavernosal injection, appropriate dose
[2] = buccal administration of 100 I.U. three times a day for 14 days
[3] = 1989 outbreak traced to L-tryptophan supplied by Showa Denko KK

SMILES | erection after injection [1] | further results
COc1ccc(Cc2nccc3cc(OC)c(OC)cc23)cc1OC [papaverine] | caused erection | duration of erection [1]: unrelenting erection lasting for hours
Cc1ccc(N(CC2=NCCN2)c2cccc(O)c2)cc1 [phentolamine] | caused erection | 
CC[C@H](C)[C@@H]1NC(=O)[C@H](Cc2ccc(O)cc2)NC(=O)[C@@H](N)CSSC[C@@H](C(=O)N2CCC[C@H]2C(=O)N[C@@H](CC(C)C)C(=O)NCC(N)=O)NC(=O)[C@H](CC(N)=O)NC(=O)[C@H](CCC(N)=O)NC1=O [oxytocin] |  | improvement of impotentia erectionis, patients improved of patients treated [2]: 12 of the 16
CC(COc1ccccc1)N(CCCl)Cc1ccccc1 (centres unmarked) [phenoxybenzamine] | caused erection | duration of erection [1]: unrelenting erection lasting for hours
CN(C)CCCN1c2ccccc2CCc2ccccc21 [imipramine] | caused erection | 
CCN(CC)CCOC(=O)C(Cc1cccc2ccccc12)CC1CCCO1 (mixture of isomers) [naftidrofuryl] | caused erection | 
CC(=O)Oc1cc(C(C)C)c(OCCN(C)C)cc1C [thymoxamine] | caused erection | 
N[C@@H](Cc1c[nH]c2ccccc12)C(=O)O [L-tryptophan] |  | cases of eosinophilia-myalgia syndrome (EMS) in the outbreak [3]: 1500 cases; deaths in the EMS outbreak [3]: at least 37 deaths
